Laboratory results published in PubChem BioAssay (NCI).
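All cell lines were grown in 96-well plates and treated with compound for 48 hours. GI50 = concentration required for 50% inhibition of growth. Definition used: TGI = concentration required for complete inhibition of growth.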

How the values were obtained:
Test in all cases: DTP human tumour cell line panel, 48 h
SNB-75 CNS = tested on: SNB-75 CNS
A498 renal = tested on: A498 renal
SF-295 CNS = tested on: SF-295 CNS
SN12C renal = tested on: SN12C renal
HOP-92 NSCLC = tested on: HOP-92 NSCLC
OVCAR-3 ovarian = tested on: OVCAR-3 ovarian
HOP-62 NSCLC = tested on: HOP-62 NSCLC
UO-31 renal = tested on: UO-31 renal
K-562 leukemia = tested on: K-562 leukemia
NCI-H23 lung = tested on: NCI-H23 lung
CAKI-1 renal = tested on: CAKI-1 renal
NCI-H226 lung = tested on: NCI-H226 lung
NCI-H522 lung = tested on: NCI-H522 lung
NCI/ADR-RES ovarian = tested on: NCI/ADR-RES ovarian
HCT-15 colon = tested on: HCT-15 colon
UACC-257 melanoma = tested on: UACC-257 melanoma
SK-MEL-2 melanoma = tested on: SK-MEL-2 melanoma
MALME-3M melanoma = tested on: MALME-3M melanoma
EKVX NSCLC = tested on: EKVX NSCLC
RXF 393 renal = tested on: RXF 393 renal
COLO 205 colon = tested on: COLO 205 colon
786-0 renal = tested on: 786-0 renal
SK-OV-3 ovarian = tested on: SK-OV-3 ovarian
RPMI-8226 leukemia = tested on: RPMI-8226 leukemia
SW-620 colon = tested on: SW-620 colon
MDA-MB-231 breast = tested on: MDA-MB-231 breast
LOX IMVI melanoma = tested on: LOX IMVI melanoma
HCT-116 colon = tested on: HCT-116 colon
SNB-19 CNS = tested on: SNB-19 CNS
HS 578T breast = tested on: HS 578T breast
ACHN renal = tested on: ACHN renal
MOLT-4 leukemia = tested on: MOLT-4 leukemia
HT29 colon = tested on: HT29 colon
OVCAR-5 ovarian = tested on: OVCAR-5 ovarian
BT-549 breast = tested on: BT-549 breast
PC-3 prostate = tested on: PC-3 prostate
A549 NSCLC = tested on: A549 NSCLC
IGROV1 ovarian = tested on: IGROV1 ovarian
U251 CNS = tested on: U251 CNS
DU-145 prostate = tested on: DU-145 prostate
SF-539 CNS = tested on: SF-539 CNS
SF-268 CNS = tested on: SF-268 CNS
T-47D breast = tested on: T-47D breast
SK-MEL-5 melanoma = tested on: SK-MEL-5 melanoma
NCI-H460 lung = tested on: NCI-H460 lung
CCRF-CEM leukemia = tested on: CCRF-CEM leukemia
OVCAR-4 ovarian = tested on: OVCAR-4 ovarian
MCF7 breast = tested on: MCF7 breast
SK-MEL-28 melanoma = tested on: SK-MEL-28 melanoma
SR leukemia = tested on: SR leukemia
MDA-MB-435 = tested on: MDA-MB-435
KM12 colon = tested on: KM12 colon
OVCAR-8 ovarian = tested on: OVCAR-8 ovarian
HL-60(TB) leukemia = tested on: HL-60(TB) leukemia
M14 melanoma = tested on: M14 melanoma
TK-10 renal = tested on: TK-10 renal
UACC-62 melanoma = tested on: UACC-62 melanoma
HCC-2998 colon = tested on: HCC-2998 colon

Question: What does the source list for `Cc1ccc2c3c(c(=O)[nH]c2c1)C1(C(C#N)=C(N)O3)c2cc(Br)ccc2-c2ccc(Br)cc21`?
Answer: GI50 (SNB-75 CNS): 1510 nM; TGI (SNB-75 CNS): 3.16 µM; GI50 (A498 renal): 1440 nM; TGI (A498 renal): 3.61 µM; GI50 (SF-295 CNS): 1820 nM; TGI (SF-295 CNS): 3.71 µM; GI50 (SN12C renal): 1920 nM; TGI (SN12C renal): 4.03 µM; GI50 (HOP-92 NSCLC): 1380 nM; TGI (HOP-92 NSCLC): 3.15 µM; GI50 (OVCAR-3 ovarian): 2110 nM; TGI (OVCAR-3 ovarian): 4.76 µM; GI50 (HOP-62 NSCLC): 1850 nM; TGI (HOP-62 NSCLC): 4.19 µM; GI50 (UO-31 renal): 1330 nM; TGI (UO-31 renal): 2740 nM; GI50 (K-562 leukemia): 2960 nM; TGI (K-562 leukemia): 12.6 µM; GI50 (NCI-H23 lung): 2110 nM; TGI (NCI-H23 lung): 4.62 µM; GI50 (CAKI-1 renal): 1560 nM; TGI (CAKI-1 renal): 3.23 µM; GI50 (NCI-H226 lung): 1900 nM; TGI (NCI-H226 lung): 4.6 µM; GI50 (NCI-H522 lung): 1610 nM; TGI (NCI-H522 lung): 4.32 µM; GI50 (NCI/ADR-RES ovarian): 6.82 µM; TGI (NCI/ADR-RES ovarian): > 100 µM; GI50 (HCT-15 colon): 2230 nM; TGI (HCT-15 colon): 5.54 µM; GI50 (UACC-257 melanoma): 2320 nM; TGI (UACC-257 melanoma): 5.24 µM; GI50 (SK-MEL-2 melanoma): 2520 nM; TGI (SK-MEL-2 melanoma): 6.72 µM; GI50 (MALME-3M melanoma): 1510 nM; TGI (MALME-3M melanoma): 3.15 µM; GI50 (EKVX NSCLC): 1740 nM; TGI (EKVX NSCLC): 3.82 µM; GI50 (RXF 393 renal): 1530 nM; TGI (RXF 393 renal): 3.13 µM; GI50 (COLO 205 colon): 1870 nM; TGI (COLO 205 colon): 3.82 µM; GI50 (786-0 renal): 2460 nM; TGI (786-0 renal): 6.01 µM; GI50 (SK-OV-3 ovarian): 2470 nM; TGI (SK-OV-3 ovarian): 6.45 µM; GI50 (RPMI-8226 leukemia): 4.5 µM; TGI (RPMI-8226 leukemia): 23.7 µM; GI50 (SW-620 colon): 1860 nM; TGI (SW-620 colon): 4.22 µM; GI50 (MDA-MB-231 breast): 1700 nM; TGI (MDA-MB-231 breast): 3.6 µM; GI50 (LOX IMVI melanoma): 1680 nM; TGI (LOX IMVI melanoma): 3.25 µM; GI50 (HCT-116 colon): 1940 nM; TGI (HCT-116 colon): 4.35 µM; GI50 (SNB-19 CNS): 2120 nM; TGI (SNB-19 CNS): 6.01 µM; GI50 (HS 578T breast): 2220 nM; TGI (HS 578T breast): 5.95 µM; GI50 (ACHN renal): 1870 nM; TGI (ACHN renal): 4.15 µM; GI50 (MOLT-4 leukemia): 2920 nM; TGI (MOLT-4 leukemia): 10.1 µM; GI50 (HT29 colon): 2250 nM; TGI (HT29 colon): 6.06 µM; GI50 (OVCAR-5 ovarian): 2020 nM; TGI (OVCAR-5 ovarian): 4.75 µM; GI50 (BT-549 breast): 3.93 µM; TGI (BT-549 breast): 19.8 µM; GI50 (PC-3 prostate): 1850 nM; TGI (PC-3 prostate): 4 µM; GI50 (A549 NSCLC): 2010 nM; TGI (A549 NSCLC): 4.52 µM; GI50 (IGROV1 ovarian): 1600 nM; TGI (IGROV1 ovarian): 3.75 µM; GI50 (U251 CNS): 1810 nM; TGI (U251 CNS): 3.5 µM; GI50 (DU-145 prostate): 2980 nM; TGI (DU-145 prostate): 12.1 µM; GI50 (SF-539 CNS): 1730 nM; TGI (SF-539 CNS): 3.21 µM; GI50 (SF-268 CNS): 2030 nM; TGI (SF-268 CNS): 5.08 µM; GI50 (T-47D breast): 1680 nM; TGI (T-47D breast): 3.78 µM; GI50 (SK-MEL-5 melanoma): 10.2 µM; TGI (SK-MEL-5 melanoma): 24.1 µM; GI50 (NCI-H460 lung): 2090 nM; TGI (NCI-H460 lung): 4.67 µM; GI50 (CCRF-CEM leukemia): 3.12 µM; TGI (CCRF-CEM leukemia): 15 µM; GI50 (OVCAR-4 ovarian): 1720 nM; TGI (OVCAR-4 ovarian): 3.3 µM; GI50 (MCF7 breast): 2100 nM; TGI (MCF7 breast): 5.76 µM; GI50 (SK-MEL-28 melanoma): 3.48 µM; TGI (SK-MEL-28 melanoma): 13.4 µM; GI50 (SR leukemia): 2360 nM; TGI (SR leukemia): 14.5 µM; GI50 (MDA-MB-435): 2050 nM; TGI (MDA-MB-435): 4.7 µM; GI50 (KM12 colon): 1670 nM; TGI (KM12 colon): 4.76 µM; GI50 (OVCAR-8 ovarian): 3.02 µM; TGI (OVCAR-8 ovarian): 8.62 µM; GI50 (HL-60(TB) leukemia): 18.8 µM; TGI (HL-60(TB) leukemia): 66.7 µM; GI50 (M14 melanoma): 4.23 µM; TGI (M14 melanoma): 17 µM; GI50 (TK-10 renal): 2310 nM; TGI (TK-10 renal): 6.09 µM; GI50 (UACC-62 melanoma): 2190 nM; TGI (UACC-62 melanoma): 11.3 µM; GI50 (HCC-2998 colon): 2150 nM; TGI (HCC-2998 colon): 4.74 µM
